ChEMBL document CHEMBL1136948, “Non-nucleoside inhibitors of HCV NS5B polymerase. Part 1: Synthetic and computational exploration of the binding modes of benzothiadiazine and 1,4-benzothiazine HCV NS5b polymerase inhibitors” (Bioorg Med Chem Lett, 2009)

Tests used:
Hepatitis C virus [1] = test: Inhibition of HCV 1b NS5B polymerase; format: organism-based, Hepatitis C virus subtype 1b
Hepatitis C virus [2] = test: Antiviral activity against HCV 1b replication in human 2209-23 cells assessed as [3H]thymidine incorporation into cellular DNA by scintillation proximity assay; format: functional, organism-based, Hepacivirus hominis; conditions: genotype 1b
Hepatitis C virus [3] = test: Inhibition of HCV 1b J4 NS5B Cdelta 21polymerase over expressed in Escherichia coli assessed as [alpha33P]UTP incorporation; set-up: species or system Hepatitis C virus subtype 1b
[4] = Apparent permeability from apical to basolateral side of human Caco-2 cells after 21 days
[5] = Apparent permeability from basolateral to apical side of human Caco-2 cells after 21 days
[6] = Apparent permeability across human Caco-2 cells after 7 days; format: ADME, cell-based
Hepatitis C virus [7] = test: Antiviral activity against HCV in human HuH7 cells by replicon assay; format: functional, organism-based, Hepacivirus hominis; conditions: Huh-7

| SMILES | IC50 (Hepatitis C virus [1]) | EC50 (Hepatitis C virus [2]) | other results |
| --- | --- | --- | --- |
| CC(C)CCn1c(=O)c(C2=CS(=O)(=O)c3ccccc3N2)c(O)c2cccnc21 | 1.4 µM | – | – |
| O=S1(=O)C=C(c2nc(Cc3ccc(F)cc3)c3ccccc3c2O)Nc2ccccc21 | 6.9 µM | 7600 nM | – |
| CC(C)CCn1c(=O)c(C2=NS(=O)(=O)c3ccccc3N2)cc2ccccc21 | 682 µM | – | – |
| N#Cc1cccc(Cn2c(=O)c(C3=CS(=O)(=O)c4ccccc4N3)c(O)c3cc(F)ccc32)c1 | 37 µM | – | – |
| Cc1c(-c2ccccc2)c(O)c(C2=CS(=O)(=O)c3ccccc3N2)c(=O)n1CCC(C)C | 87 µM | – | – |
| Cc1ccc2c(c1)c(O)c(C1=CS(=O)(=O)c3ccccc3N1)c(=O)n2Cc1ccc(F)cc1 | 1.5 µM | 1500 nM | – |
| CC(C)CCn1cc(C2=NS(=O)(=O)c3ccccc3N2)c(=O)c2ccccc21 | > 1000 µM | – | – |
| CC(C)CCn1c(=O)c(C2=NS(=O)(=O)c3ccccc3N2)c(O)c2ccccc21 | 1.1 µM | 870 nM | IC50 (Hepatitis C virus [3]): 30 nM |
| Cc1cc(Cn2c(=O)c(C3=CS(=O)(=O)c4ccccc4N3)c(O)c3cc(F)ccc32)ccc1F | 0.4 µM | 800 nM | Papp A→B [4]: 0.5 ×10⁻⁶ cm/s; Papp B→A [5]: 5.3 ×10⁻⁶ cm/s |
| CC(C)CCn1c(=O)c(C2=CS(=O)(=O)c3ccccc3N2)c(O)c2cc(F)cnc21 | 0.83 µM | 8600 nM | – |
| CC(C)CCn1c(=O)c(C2=CS(=O)(=O)c3ccccc3N2)c(O)c2ccccc21 | 2.3 µM | 2500 nM | – |
| O=c1c(C2=CS(=O)(=O)c3ccccc3N2)c(O)c2cc(F)ccc2n1Cc1ccc(F)cc1 | 0.7 µM | 700 nM | – |
| O=c1c(C2=CS(=O)(=O)c3ccccc3N2)c(O)c2ccccc2n1Cc1ccccc1F | 17.5 µM | 46000 nM | – |
| Cc1ccc2c(c1)c(O)c(C1=CS(=O)(=O)c3ccccc3N1)c(=O)n2CCC1CC1 | 1.3 µM | 640 nM | Papp [6]: 9.4 ×10⁻⁶ cm/s |
| O=S1(=O)N=C(c2nc(Cc3ccc(F)cc3)c3ccccc3c2O)c2ccccc21 | 2.2 µM | 440 nM | – |
| COc1ccc2c(c1)c(O)c(C1=CS(=O)(=O)c3ccccc3N1)c(=O)n2CCC1CC1 | 3.8 µM | 7100 nM | – |
| O=c1c(C2=CS(=O)(=O)c3ccccc3N2)c(O)c2cc(Cl)ccc2n1CCC1CC1 | 2.4 µM | 1600 nM | – |
| O=c1c(C2=CS(=O)(=O)c3ccccc3N2)c(O)c2cc(F)ccc2n1CCC1CC1 | 1.1 µM | 1200 nM | Papp [6]: 6.4 ×10⁻⁶ cm/s; Papp A→B [4]: 0.6 ×10⁻⁶ cm/s; Papp B→A [5]: 7.1 ×10⁻⁶ cm/s |
| O=c1c(C2=Nc3ccccc3S(=O)(=O)N2)c(O)c2cc(F)ccc2n1CCC1CC1 | 0.1 µM | 260 nM | IC50 (Hepatitis C virus [3]): 10 nM; IC50 (Hepatitis C virus [7]): 40 nM |
| CN1C(c2nc(Cc3ccc(F)cc3)c3ccccc3c2O)=CS(=O)(=O)c2ccccc21 | 19.5 µM | – | – |
| CC(C)CCn1c(=O)c(C2=CS(=O)(=O)c3ccccc3N2)cc2ccccc21 | 868 µM | – | – |
| O=c1c(C2=CS(=O)(=O)c3ccccc3N2)c(O)c2cc(F)ccc2n1Cc1ccc(F)c(F)c1 | 1.2 µM | 1500 nM | – |
| O=c1c(C2=CS(=O)(=O)c3ccccc3N2)c(O)c2ccccc2n1Cc1ccc(F)cc1 | 0.72 µM | 790 nM | Papp [6]: 4.4 ×10⁻⁶ cm/s |
| O=c1c(C2=CS(=O)(=O)c3ccccc3N2)c(O)c2cccnc2n1CCC1CC1 | 2.7 µM | – | – |
